Results on 17 molecules are retold here after ChEMBL document CHEMBL3991601, “The target landscape of clinical kinase drugs” (Science, 2017).

SMILES strings stand for the structures. The source made the active and inactive calls. Bounds are passed on as bounds.

Test [1] addresses T1, Electron transfer flavoprotein subunit beta (Homo sapiens, UniProt P38117).
T1 sequence (P38117 whole entry): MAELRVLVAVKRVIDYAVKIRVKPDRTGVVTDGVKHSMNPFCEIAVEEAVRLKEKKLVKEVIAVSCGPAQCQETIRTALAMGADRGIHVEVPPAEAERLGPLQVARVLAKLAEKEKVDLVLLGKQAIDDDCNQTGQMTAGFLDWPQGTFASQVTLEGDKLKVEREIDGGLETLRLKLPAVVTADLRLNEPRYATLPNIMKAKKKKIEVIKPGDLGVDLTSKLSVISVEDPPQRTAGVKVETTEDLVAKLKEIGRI

Test [2] concerns the target 26S proteasome regulatory subunit 6B (Homo sapiens, UniProt P43686).
Test [3] concerns the target Eukaryotic translation initiation factor 2-alpha kinase 1 (Homo sapiens, UniProt Q9BQI3).
Test [4] concerns the target T2, DNA replication licensing factor MCM4 (Homo sapiens, UniProt P33991).
T2 sequence (P33991 whole entry): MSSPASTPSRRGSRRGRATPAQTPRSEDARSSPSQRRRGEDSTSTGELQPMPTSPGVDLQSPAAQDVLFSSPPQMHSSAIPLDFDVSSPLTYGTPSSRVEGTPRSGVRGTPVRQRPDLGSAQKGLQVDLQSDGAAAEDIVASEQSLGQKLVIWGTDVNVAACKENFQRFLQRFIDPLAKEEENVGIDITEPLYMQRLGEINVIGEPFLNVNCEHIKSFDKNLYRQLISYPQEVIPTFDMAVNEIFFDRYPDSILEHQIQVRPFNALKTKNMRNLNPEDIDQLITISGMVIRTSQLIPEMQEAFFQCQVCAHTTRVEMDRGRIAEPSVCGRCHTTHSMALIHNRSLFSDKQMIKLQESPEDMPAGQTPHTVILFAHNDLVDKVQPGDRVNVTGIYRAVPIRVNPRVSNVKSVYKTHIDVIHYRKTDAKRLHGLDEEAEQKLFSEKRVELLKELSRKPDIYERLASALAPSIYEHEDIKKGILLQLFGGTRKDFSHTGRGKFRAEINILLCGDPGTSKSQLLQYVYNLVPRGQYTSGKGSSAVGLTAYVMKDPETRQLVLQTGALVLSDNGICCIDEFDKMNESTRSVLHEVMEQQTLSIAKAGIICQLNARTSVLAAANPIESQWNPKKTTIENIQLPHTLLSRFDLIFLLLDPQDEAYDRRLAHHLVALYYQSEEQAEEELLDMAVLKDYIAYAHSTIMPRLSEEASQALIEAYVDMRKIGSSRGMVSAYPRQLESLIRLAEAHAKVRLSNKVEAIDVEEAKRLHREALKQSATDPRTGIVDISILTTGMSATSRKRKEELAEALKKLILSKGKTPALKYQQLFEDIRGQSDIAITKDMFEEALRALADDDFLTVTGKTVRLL

The target in test [5] is T3, Serine/threonine-protein kinase D2 (Homo sapiens, UniProt Q9BZL6).
T3 sequence (Q9BZL6 whole entry): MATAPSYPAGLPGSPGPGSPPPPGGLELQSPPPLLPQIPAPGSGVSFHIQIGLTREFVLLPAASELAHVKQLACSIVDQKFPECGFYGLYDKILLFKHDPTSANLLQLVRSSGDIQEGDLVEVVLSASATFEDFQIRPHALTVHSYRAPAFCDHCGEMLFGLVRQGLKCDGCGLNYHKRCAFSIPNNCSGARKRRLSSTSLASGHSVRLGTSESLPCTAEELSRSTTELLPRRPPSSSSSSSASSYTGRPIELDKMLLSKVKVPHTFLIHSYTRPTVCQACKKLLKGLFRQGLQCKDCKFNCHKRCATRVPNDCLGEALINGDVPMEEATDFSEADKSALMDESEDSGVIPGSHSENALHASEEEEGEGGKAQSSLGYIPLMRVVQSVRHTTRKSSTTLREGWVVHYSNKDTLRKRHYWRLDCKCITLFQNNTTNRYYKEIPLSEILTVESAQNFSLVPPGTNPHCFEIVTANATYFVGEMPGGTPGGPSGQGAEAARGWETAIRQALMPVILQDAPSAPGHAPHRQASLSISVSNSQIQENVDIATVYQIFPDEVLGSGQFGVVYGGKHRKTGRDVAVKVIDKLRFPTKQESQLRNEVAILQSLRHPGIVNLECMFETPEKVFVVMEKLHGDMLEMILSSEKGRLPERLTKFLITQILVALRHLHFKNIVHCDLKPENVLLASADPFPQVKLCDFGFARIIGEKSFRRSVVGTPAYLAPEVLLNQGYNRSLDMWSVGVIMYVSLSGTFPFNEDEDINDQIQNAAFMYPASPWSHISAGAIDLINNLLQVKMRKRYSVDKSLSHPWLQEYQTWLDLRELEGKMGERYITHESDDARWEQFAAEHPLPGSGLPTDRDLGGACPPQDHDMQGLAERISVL

Another test has as its target Insulin receptor (Homo sapiens, UniProt P06213).
In test [6] the target is T4, Mitogen-activated protein kinase kinase kinase kinase 2 (Homo sapiens, UniProt Q12851).
T4 sequence (Q12851 whole entry): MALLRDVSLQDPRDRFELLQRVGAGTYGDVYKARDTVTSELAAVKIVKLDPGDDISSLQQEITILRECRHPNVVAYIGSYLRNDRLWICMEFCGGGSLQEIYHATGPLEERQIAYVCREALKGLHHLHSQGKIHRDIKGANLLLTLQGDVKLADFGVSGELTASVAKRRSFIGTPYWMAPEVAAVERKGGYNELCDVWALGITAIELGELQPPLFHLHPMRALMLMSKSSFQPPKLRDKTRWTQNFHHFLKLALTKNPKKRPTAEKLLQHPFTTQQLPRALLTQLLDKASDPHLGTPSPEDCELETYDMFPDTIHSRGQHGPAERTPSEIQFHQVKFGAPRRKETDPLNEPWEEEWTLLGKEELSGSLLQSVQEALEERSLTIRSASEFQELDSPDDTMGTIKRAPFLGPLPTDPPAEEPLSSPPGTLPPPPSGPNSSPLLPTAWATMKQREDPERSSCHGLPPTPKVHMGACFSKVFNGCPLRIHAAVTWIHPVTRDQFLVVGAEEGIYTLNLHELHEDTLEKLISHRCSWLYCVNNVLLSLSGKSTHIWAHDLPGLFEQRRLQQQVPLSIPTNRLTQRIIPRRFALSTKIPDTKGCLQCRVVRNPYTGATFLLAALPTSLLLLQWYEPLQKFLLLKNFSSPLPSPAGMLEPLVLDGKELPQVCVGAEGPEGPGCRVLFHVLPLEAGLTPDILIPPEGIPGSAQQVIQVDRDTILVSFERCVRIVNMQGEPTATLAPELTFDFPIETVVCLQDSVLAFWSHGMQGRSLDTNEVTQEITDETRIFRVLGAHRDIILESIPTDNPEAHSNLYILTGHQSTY

Test [7] concerns the target Mitogen-activated protein kinase kinase kinase kinase 4 (Homo sapiens, UniProt O95819).
Note: in the data inactive means no Kd found up to 30 µM.

Sequence of Eukaryotic translation initiation factor 2-alpha kinase 1 (Q9BQI3 whole entry): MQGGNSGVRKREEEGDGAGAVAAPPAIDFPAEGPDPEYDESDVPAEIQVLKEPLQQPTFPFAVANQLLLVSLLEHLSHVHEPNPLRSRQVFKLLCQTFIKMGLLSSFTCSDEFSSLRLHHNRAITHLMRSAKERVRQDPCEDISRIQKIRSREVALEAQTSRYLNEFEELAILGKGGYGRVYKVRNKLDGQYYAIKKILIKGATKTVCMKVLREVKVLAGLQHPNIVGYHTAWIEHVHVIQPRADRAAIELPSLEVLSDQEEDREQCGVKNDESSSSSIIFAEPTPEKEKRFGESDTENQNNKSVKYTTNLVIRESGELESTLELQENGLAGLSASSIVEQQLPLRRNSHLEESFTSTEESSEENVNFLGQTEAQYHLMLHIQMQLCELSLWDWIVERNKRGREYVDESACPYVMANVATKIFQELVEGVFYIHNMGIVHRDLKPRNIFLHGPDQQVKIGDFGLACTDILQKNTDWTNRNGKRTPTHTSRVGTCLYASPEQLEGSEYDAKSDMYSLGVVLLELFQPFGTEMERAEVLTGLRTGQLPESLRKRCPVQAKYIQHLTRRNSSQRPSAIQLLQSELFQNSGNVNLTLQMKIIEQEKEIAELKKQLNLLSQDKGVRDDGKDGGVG
Sequence of Insulin receptor (P06213 28-758 limits assumed): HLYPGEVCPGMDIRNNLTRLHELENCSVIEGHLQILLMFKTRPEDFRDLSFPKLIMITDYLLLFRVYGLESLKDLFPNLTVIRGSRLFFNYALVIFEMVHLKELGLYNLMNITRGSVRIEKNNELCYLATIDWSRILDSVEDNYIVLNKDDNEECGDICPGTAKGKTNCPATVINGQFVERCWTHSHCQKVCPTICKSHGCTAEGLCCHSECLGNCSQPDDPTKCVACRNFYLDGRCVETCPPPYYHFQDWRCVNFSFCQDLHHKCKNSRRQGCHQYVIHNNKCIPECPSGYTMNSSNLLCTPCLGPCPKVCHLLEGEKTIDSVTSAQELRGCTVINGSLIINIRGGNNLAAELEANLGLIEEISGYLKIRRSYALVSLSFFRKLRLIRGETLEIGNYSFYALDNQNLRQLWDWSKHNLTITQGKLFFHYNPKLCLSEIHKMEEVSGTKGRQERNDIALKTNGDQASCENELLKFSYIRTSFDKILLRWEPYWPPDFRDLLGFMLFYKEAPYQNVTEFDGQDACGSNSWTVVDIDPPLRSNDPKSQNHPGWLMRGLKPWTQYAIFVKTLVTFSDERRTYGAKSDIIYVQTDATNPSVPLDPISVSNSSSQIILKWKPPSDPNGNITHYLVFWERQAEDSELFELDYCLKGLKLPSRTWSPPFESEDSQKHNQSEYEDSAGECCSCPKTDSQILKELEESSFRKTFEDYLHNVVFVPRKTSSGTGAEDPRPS
Sequence of Insulin receptor (P06213 763-1382 limits assumed): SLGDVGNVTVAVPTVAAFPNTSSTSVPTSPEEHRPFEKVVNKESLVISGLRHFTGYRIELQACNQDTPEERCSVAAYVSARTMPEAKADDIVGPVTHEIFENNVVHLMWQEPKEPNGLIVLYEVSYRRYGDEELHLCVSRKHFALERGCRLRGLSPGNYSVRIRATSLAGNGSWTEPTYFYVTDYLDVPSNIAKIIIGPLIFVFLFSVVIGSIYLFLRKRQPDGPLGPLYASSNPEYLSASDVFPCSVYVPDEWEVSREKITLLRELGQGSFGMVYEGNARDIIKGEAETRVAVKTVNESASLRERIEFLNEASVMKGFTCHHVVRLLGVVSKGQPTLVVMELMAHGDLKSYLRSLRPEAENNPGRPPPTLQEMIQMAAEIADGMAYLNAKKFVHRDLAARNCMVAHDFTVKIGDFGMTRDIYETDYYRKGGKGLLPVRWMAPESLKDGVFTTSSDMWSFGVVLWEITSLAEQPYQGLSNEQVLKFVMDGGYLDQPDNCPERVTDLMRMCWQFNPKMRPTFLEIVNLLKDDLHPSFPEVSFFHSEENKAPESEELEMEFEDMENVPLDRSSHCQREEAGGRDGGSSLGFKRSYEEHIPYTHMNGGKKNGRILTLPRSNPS
Sequence of 26S proteasome regulatory subunit 6B (P43686 whole entry): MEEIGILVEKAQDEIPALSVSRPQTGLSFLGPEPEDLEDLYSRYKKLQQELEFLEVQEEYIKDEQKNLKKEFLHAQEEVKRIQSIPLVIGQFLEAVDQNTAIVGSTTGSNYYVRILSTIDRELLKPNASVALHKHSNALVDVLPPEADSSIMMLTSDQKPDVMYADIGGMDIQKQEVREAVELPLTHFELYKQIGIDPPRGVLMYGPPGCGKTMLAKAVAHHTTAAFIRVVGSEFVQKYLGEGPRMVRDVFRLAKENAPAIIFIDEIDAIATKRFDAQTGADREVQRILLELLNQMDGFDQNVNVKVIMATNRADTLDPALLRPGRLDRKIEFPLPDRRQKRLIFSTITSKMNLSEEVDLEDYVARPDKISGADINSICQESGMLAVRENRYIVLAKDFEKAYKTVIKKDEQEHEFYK
Sequence of Mitogen-activated protein kinase kinase kinase kinase 4 (O95819 whole entry): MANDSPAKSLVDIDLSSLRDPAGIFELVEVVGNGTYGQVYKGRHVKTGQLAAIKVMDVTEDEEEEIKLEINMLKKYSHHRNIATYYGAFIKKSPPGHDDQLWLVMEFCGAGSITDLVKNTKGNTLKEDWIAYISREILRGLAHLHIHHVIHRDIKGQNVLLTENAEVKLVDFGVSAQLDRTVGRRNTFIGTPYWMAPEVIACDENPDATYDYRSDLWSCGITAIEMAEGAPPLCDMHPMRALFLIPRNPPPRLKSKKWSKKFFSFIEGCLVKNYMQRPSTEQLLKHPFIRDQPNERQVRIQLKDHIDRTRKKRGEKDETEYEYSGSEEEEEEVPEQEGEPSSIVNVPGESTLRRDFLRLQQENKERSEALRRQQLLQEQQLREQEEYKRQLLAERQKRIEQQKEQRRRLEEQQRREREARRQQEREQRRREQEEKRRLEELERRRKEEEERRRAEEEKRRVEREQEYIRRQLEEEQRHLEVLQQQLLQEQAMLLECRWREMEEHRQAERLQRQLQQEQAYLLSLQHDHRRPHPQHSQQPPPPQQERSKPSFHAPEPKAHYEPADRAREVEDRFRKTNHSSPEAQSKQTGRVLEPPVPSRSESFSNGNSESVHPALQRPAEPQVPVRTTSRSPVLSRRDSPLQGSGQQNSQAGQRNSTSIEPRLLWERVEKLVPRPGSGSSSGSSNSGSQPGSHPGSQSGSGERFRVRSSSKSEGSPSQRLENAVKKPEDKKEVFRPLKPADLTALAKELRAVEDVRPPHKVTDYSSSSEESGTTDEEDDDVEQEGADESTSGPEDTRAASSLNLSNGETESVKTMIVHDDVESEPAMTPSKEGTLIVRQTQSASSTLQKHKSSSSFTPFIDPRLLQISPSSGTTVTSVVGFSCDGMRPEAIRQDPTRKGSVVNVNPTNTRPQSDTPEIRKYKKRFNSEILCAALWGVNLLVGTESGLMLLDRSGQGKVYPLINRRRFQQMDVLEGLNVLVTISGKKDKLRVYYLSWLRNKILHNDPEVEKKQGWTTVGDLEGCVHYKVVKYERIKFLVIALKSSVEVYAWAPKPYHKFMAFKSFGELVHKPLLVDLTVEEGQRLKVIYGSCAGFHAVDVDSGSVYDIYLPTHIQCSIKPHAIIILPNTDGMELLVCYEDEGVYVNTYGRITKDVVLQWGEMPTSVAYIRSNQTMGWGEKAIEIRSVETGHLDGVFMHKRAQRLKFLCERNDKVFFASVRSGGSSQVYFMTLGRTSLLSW

What is called Kd is the free concentration of one partner at which half of the binding sites on the other are occupied at equilibrium, for simple one-to-one binding. As for `Cn1c(=O)n(-c2ccc(C(C)(C)C#N)cc2)c2c3cc(-c4cnc5ccccc5c4)ccc3ncc21` [DACTOLISIB], the Kd (in test [1]; in test [2]; in test [3]; in test [4]; in test [5]; at Insulin receptor) was > 30 µM (inactive) each time.
Take `C[C@@]1(C(=O)Nc2ccc(F)nc2)CCCN1c1nc(Nc2cc(C3CC3)n[nH]2)c2cccn2n1` [BMS-754807]: the Kd in test [1], in test [2] and in test [4] was > 30 µM (inactive) in each case.
`CN(c1ncccc1CNc1nc(Nc2ccc3c(c2)CC(=O)N3)ncc1C(F)(F)F)S(C)(=O)=O` [PF-00562271]: the Kd in test [1], in test [2], in test [3] and in test [4] was > 30 µM (inactive) each time.
In the case of `CN1CCN(c2nc(C3=C(c4c[nH]c5ccccc45)C(=O)NC3=O)c3ccccc3n2)CC1` [SOTRASTAURIN], the Kd in test [6], in test [2], in test [3], in test [4] and in test [5] was > 30 µM (inactive) in each case.
`N#CCNC(=O)c1ccc(-c2ccnc(Nc3ccc(N4CCOCC4)cc3)n2)cc1` [MOMELOTINIB]: the Kd was > 30 µM (inactive) in test [1]; > 30 µM (inactive) in test [6]; > 30 µM (inactive) in test [2]; > 30 µM (inactive) in test [4]; 0.531 µM (active) in test [5]; > 30 µM (inactive) at Insulin receptor.
As to `COc1cc2c(Oc3ccc4[nH]c(C)cc4c3F)ncnc2cc1OCCCN1CCCC1` [CEDIRANIB], the Kd in test [1], in test [2] and in test [4] was > 30 µM (inactive) each time.
On to `Cn1cnc2c(F)c(Nc3ccc(Br)cc3Cl)c(C(=O)NOCCO)cc21` [SELUMETINIB], for which the Kd in test [1], in test [2] and in test [4] was > 30 µM (inactive) each time.
On to `COc1cc2c(N3CCN(C(=O)Nc4ccc(OC(C)C)cc4)CC3)ncnc2cc1OCCCN1CCCCC1` [TANDUTINIB], for which the Kd in test [1], in test [2] and in test [4] was > 30 µM (inactive) in each case.
As for `CCN(CCCOc1ccc2c(Nc3cc(CC(=O)Nc4cccc(F)c4)n[nH]3)ncnc2c1)CCOP(=O)(O)O` [BARASERTIB], the Kd (in test [1]; in test [2]; in test [3]; in test [4]; in test [5]; at Insulin receptor) was > 30 µM (inactive) throughout.
With `CC1(C)CNc2cc(NC(=O)c3cccnc3NCc3ccncc3)ccc21` [MOTESANIB], the Kd in test [1], in test [2] and in test [4] was > 30 µM (inactive) in each case.
Turning to `C=CCn1c(=O)c2cnc(Nc3ccc(N4CCN(C)CC4)cc3)nc2n1-c1cccc(C(C)(C)O)n1` [ADAVOSERTIB], the Kd (in test [1]; in test [2]; in test [3]; in test [4]; in test [5]; at Insulin receptor) was > 30 µM (inactive) each time.
Consider `CCc1nc(C(N)=O)c(Nc2ccc(N3CCC(N4CCN(C)CC4)CC3)c(OC)c2)nc1NC1CCOCC1` [GILTERITINIB], for which the Kd in test [1] was > 30 µM (inactive); in test [6], 0.244 µM (active); in test [2] it was > 30 µM (inactive); in test [7], 0.202 µM (active); in test [4] it was > 30 µM (inactive); in test [5] it was > 30 µM (inactive).
In the case of `CN(C)C/C=C/C(=O)Nc1cc2c(Nc3ccc(F)c(Cl)c3)ncnc2cc1O[C@H]1CCOC1` [AFATINIB], the Kd in test [1], in test [2] and in test [4] was > 30 µM (inactive) each time.
In the case of `CCOc1ccn(-c2ccc(F)cc2)c(=O)c1C(=O)Nc1ccc(Oc2ccnc(N)c2Cl)c(F)c1` [BMS-777607], the Kd in test [1], in test [2], in test [3], in test [4] and in test [5] was > 30 µM (inactive) throughout.
As to `O=S(=O)(c1cccc2cnccc12)N1CCCNCC1` [FASUDIL], the Kd is > 30 µM (inactive) in test [1]; > 30 µM (inactive) in test [2]; > 30 µM (inactive) in test [3]; > 30 µM (inactive) in test [4]; 6.42 µM (active) in test [5].
Regarding `C[C@]1(O)C[C@@H](c2nc(-c3ccc4ccc(-c5ccccc5)nc4c3)c3c(N)nccn32)C1` [LINSITINIB], the Kd in test [1] was > 30 µM (inactive); in test [6], 0.067 µM (active); in test [2], > 30 µM (inactive); in test [3], > 30 µM (inactive); in test [4] it was > 30 µM (inactive).
As to `CC(C)CC(=O)Nc1[nH]nc2c1CN(C(=O)C1CCN(C)CC1)C2(C)C` [PHA-793887], the Kd in test [1], in test [6], in test [2], in test [7], in test [3] and in test [4] was > 30 µM (inactive) in each case. The Kd in test [5] was 0.103 µM (active).
